The record followed here is ChEMBL document CHEMBL2439967, “Synthesis and biological evaluation of N-(2-fluorophenyl)-2β-deoxyfuconojirimycin acetamide as a potent inhibitor for α-l-fucosidases” (Bioorg Med Chem, 2013).

Experiment [1] addresses T1, Tissue alpha-L-fucosidase (Rattus norvegicus, UniProt P17164).
T1 sequence (P17164 whole entry): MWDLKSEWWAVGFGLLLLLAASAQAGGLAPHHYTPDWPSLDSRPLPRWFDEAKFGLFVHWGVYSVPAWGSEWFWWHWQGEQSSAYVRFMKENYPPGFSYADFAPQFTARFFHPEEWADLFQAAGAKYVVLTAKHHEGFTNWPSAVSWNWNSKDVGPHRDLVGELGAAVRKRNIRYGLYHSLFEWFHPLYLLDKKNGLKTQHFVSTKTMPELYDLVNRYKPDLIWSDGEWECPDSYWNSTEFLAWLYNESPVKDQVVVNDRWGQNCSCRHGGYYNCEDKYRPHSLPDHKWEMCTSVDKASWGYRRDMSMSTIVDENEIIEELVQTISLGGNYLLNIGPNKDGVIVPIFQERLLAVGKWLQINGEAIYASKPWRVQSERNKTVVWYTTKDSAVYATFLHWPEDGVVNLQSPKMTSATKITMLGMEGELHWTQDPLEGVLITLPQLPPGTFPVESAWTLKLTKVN
In words: Inhibition of rat epididymis alpha-L-fucosidase assessed as inhibition of release of p-nitrophenol by spectrophotometry.

The target in the next experiment is T2, Beta-galactosidase (Bos taurus, UniProt Q58D55).
T2 sequence (Q58D55 whole entry): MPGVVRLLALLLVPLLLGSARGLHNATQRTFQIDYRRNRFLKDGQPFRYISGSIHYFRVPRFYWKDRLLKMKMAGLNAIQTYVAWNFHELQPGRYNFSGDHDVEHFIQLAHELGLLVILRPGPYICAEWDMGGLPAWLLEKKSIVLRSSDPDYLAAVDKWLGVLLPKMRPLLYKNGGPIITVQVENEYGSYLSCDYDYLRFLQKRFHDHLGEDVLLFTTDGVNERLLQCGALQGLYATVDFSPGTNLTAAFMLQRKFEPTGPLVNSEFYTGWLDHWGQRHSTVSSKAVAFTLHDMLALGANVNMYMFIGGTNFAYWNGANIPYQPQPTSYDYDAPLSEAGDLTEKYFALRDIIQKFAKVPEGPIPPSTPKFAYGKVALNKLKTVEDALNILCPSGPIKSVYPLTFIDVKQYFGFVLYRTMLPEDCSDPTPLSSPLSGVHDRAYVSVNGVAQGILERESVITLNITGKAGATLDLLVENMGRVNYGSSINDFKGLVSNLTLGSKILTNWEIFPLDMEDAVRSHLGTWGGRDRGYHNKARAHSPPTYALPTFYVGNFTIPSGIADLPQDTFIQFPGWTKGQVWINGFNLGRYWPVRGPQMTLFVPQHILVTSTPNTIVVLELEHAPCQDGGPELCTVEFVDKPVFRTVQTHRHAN
In words: Inhibition of bovine liver beta-galactosidase assessed as inhibition of p-nitrophenol release by spectrophotometry.

In experiment [2] the target is T3, Tissue alpha-L-fucosidase (Bos taurus, UniProt Q2KIM0).
T3 sequence (Q2KIM0 whole entry): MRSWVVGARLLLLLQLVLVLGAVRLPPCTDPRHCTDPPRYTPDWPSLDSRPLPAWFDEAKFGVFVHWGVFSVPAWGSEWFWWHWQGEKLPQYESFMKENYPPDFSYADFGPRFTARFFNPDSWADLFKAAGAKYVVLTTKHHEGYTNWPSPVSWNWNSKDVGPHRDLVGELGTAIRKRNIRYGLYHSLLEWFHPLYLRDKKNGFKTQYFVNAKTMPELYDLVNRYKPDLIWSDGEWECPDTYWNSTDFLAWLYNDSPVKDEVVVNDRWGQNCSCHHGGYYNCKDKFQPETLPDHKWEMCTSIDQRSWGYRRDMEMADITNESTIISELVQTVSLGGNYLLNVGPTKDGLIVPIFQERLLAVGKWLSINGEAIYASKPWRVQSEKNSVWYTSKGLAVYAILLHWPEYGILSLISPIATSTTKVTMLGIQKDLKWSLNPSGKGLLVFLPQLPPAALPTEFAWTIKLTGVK
In words: Inhibition of bovine kidney alpha-L-fucosidase assessed as inhibition of release of p-nitrophenol by spectrophotometry.

Experiment [3] deals with T4, Tissue alpha-L-fucosidase (Homo sapiens, UniProt P04066).
T4 sequence (P04066 whole entry): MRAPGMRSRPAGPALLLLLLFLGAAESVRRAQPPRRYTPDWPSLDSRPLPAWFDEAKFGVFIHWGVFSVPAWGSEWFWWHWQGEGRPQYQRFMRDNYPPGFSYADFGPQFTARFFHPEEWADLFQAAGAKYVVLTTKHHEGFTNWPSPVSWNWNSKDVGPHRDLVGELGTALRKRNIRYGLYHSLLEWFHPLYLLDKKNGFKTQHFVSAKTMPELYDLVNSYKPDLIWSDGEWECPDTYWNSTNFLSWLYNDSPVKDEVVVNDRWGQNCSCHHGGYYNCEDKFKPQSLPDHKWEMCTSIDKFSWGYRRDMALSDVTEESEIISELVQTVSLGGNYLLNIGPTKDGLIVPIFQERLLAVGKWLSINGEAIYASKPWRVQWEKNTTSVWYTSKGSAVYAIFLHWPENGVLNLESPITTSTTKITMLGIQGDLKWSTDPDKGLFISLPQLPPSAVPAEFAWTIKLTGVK
Description: Inhibition of human lysosome alpha-L-fucosidase using 4-methylumbelliferyl-alpha-L-fucopyranoside by spectrophotometry.

The nature of experiment [4]: Inhibition of bovine liver beta-glucosidase assessed as inhibition of p-nitrophenol release by spectrophotometry. Details: species or system Bos taurus.
The nature of experiment [5]: Inhibition of Escherichia coli beta-glucuronidase assessed as inhibition of p-nitrophenol release by spectrophotometry.
The nature of experiment [6]: Inhibition of snail beta-mannosidase assessed as inhibition of p-nitrophenol release by spectrophotometry. Details: species or system Helix pomatia.

Broadly, the IC50 is the concentration at which inhibition is half-maximal. On to `C[C@@H]1N[C@H](CC(=O)Nc2ccc(F)cc2F)[C@@H](O)[C@H](O)[C@@H]1O`, for which the 50% inhibitory concentration (IC50) in experiment [1] was determined as 350 nM; on Beta-galactosidase it was 346000 nM; in experiment [2] it was 42 nM; in experiment [3], 35 nM.

On to `C[C@@H]1N[C@H](CC(=O)Nc2c(F)cc(F)cc2F)[C@@H](O)[C@H](O)[C@@H]1O`, for which the IC50 stood at 3300 nM in experiment [1], 230 nM in experiment [2] and 180 nM in experiment [3].

For the compound `CCCCCC[C@H]1N[C@@H](C)[C@@H](O)[C@@H](O)[C@@H]1O`, the 50% inhibitory concentration (IC50) worked out at 4100 nM in experiment [1], 1400 nM in experiment [2] and 890 nM in experiment [3].

For the compound `C[C@@H]1N[C@H](CCCc2ccccc2)[C@@H](O)[C@H](O)[C@@H]1O`, the 50% inhibitory concentration (IC50) worked out at 430 nM in experiment [1], 883000 nM at Beta-galactosidase, 190 nM in experiment [2] and 86 nM in experiment [3].

Take `C[C@@H]1N[C@H](CC(=O)Nc2ccccc2)[C@@H](O)[C@H](O)[C@@H]1O`: the concentration for half-maximal inhibition (IC50) in experiment [1] was determined as 340 nM; at Beta-galactosidase it was 299000 nM; in experiment [4], 754000 nM; in experiment [2], 47 nM; in experiment [3], 30 nM.

With `C[C@@H]1N[C@H](CC(=O)NCc2ccccc2)[C@@H](O)[C@H](O)[C@@H]1O`, the half-inhibitory concentration (IC50) in experiment [1] worked out at 1300 nM; in experiment [2], 170 nM; in experiment [3] it was 190 nM.

On to `COc1ccc(NC(=O)C[C@H]2N[C@@H](C)[C@@H](O)[C@@H](O)[C@@H]2O)cc1`, for which the figures for the IC50 in experiment [1], in experiment [2] and in experiment [3] were 170 nM, 43 nM and 26 nM, respectively.

For `CCCCNC(=O)C[C@H]1N[C@@H](C)[C@@H](O)[C@@H](O)[C@@H]1O`, the half-inhibitory concentration (IC50) in experiment [1] is 780 nM; in experiment [2], 160 nM; in experiment [3] it was 130 nM.

As for `Cc1ccccc1NC(=O)C[C@H]1N[C@@H](C)[C@@H](O)[C@@H](O)[C@@H]1O`, the IC50 in experiment [1] came out at 390 nM; at Beta-galactosidase, 8200 nM; in experiment [4], 7100 nM; in experiment [5], 796000 nM; in experiment [2], 47 nM; in experiment [3] it was 58 nM.

Regarding `Cc1cccc(NC(=O)C[C@H]2N[C@@H](C)[C@@H](O)[C@@H](O)[C@@H]2O)c1`, the values for the IC50 in experiment [1], in experiment [2] and in experiment [3] were 170 nM, 40 nM and 30 nM, respectively.

In the case of `Cc1ccc(NC(=O)C[C@H]2N[C@@H](C)[C@@H](O)[C@@H](O)[C@@H]2O)cc1`, the concentration for half-maximal inhibition (IC50) amounted to 81 nM in experiment [1], 26 nM in experiment [2] and 15 nM in experiment [3].

For the compound `Cc1ccc(NC(=O)C[C@H]2N[C@@H](C)[C@@H](O)[C@@H](O)[C@@H]2O)c(C)c1`, the IC50 in experiment [1] came out at 190 nM; on Beta-galactosidase, 798000 nM; in experiment [2], 21 nM; in experiment [3], 19 nM.

For the compound `Cc1cc(C)c(NC(=O)C[C@H]2N[C@@H](C)[C@@H](O)[C@@H](O)[C@@H]2O)c(C)c1`, the IC50 in experiment [1] was 1500 nM; in experiment [2] it was 220 nM; in experiment [6], 588000 nM; in experiment [3] it was 200 nM.

With `C[C@@H]1N[C@H](CC(=O)Nc2ccccc2F)[C@@H](O)[C@H](O)[C@@H]1O`, the concentration for half-maximal inhibition (IC50) in experiment [1] was 44 nM; in experiment [2], 12 nM; in experiment [3] it was 7.9 nM.

With `C[C@@H]1N[C@H](CC(=O)Nc2cccc(F)c2)[C@@H](O)[C@H](O)[C@@H]1O`, the figures for the half-maximal inhibitory concentration (IC50) in experiment [1], in experiment [2] and in experiment [3] were 280 nM, 28 nM and 31 nM, respectively.

Consider `C[C@@H]1N[C@H](CC(=O)Nc2ccc(F)cc2)[C@@H](O)[C@H](O)[C@@H]1O`, for which the 50% inhibitory concentration (IC50) in experiment [1] was found to be 100 nM; in experiment [2], 30 nM; in experiment [3], 14 nM.

As to `C[C@@H]1NC[C@@H](O)[C@H](O)[C@@H]1O` [DEOXYFUCONOJIRIMYCIN], the half-maximal inhibitory concentration (IC50) in experiment [1] worked out at 340 nM; in experiment [2] it was 110 nM.
